# Measurements taken from EPA's aquatic toxicity sets.
# Key:
# Tetrahymena pyriformis = experiment: 48 h IGC50 (-log10 mol/L); higher = more toxic
# Pimephales promelas = experiment: 96 h LC50 (-log10 mol/L); higher = more toxic
Compound,48 h IGC50 (-log10 mol/L) (Tetrahymena pyriformis),96 h LC50 (-log10 mol/L) (Pimephales promelas)
Nc1cccc(OCc2ccccc2)c1,3.88,4.34
N#CCCCCCCC#N,2.23,2.41
O=Cc1cc(Cl)ccc1O,4.01,5.31
CCCCCOCCCCC,4.09,4.71
Cc1cccc(O)c1[N+](=O)[O-],3.61,3.52
CC(C)CC=O,2.67,4.42
Brc1ccc(Br)cc1,3.68,5.28
C#CC(C)O (configuration not stated),2.6,3.78
OCC(Br)CBr (configuration not stated),2.51,3.49
Oc1ccc(Cl)cc1Cc1cc(Cl)ccc1O,6.09,5.94
CCC(C)=NO,1.93,2.01
Cc1cccc(Cl)c1C#N,3.46,4
O=[N+]([O-])c1ccc(F)cc1,3.1,3.7
CCOc1ccc(N)c([N+](=O)[O-])c1,3.76,3.85
Cc1ccc(N)cc1N,2.34,1.94
CC(=O)OC(C)(C)C,1.51,2.55
CCCCCCCCC#N,3.62,4.3
CC(=O)CCC=C(C)C,2.55,3.17
CCCCC=O,2.98,3.83
C=CCO,1.08,5.26
C=C(C)C(=O)OCc1ccccc1,3.65,4.58
CCCCCCCCc1ccc(N)cc1,5.43,6.23
CCCCCC(=O)OCC,3.06,4.21
CCCCCCCCCCC(C)=O,4.67,5.19

Compound,48 h IGC50 (-log10 mol/L) (Tetrahymena pyriformis),96 h LC50 (-log10 mol/L) (Pimephales promelas)
CC(=O)CC(=O)c1ccccc1,3.57,5.17
O=Cc1ccccc1[N+](=O)[O-],3.17,4.02
NCCN1CCNCC1,2.21,1.77
N#Cc1cccc(C(F)(F)F)c1,–,3.56
CCSCCSCC,–,3.4
CC(=O)Br,–,3.48
Nc1ccc(S(=O)(=O)O)cc1,–,3.24
OCCN(CCO)c1ccccc1,–,2.39
C=CC(C)(O)CC/C=C(\C)CCC=C(C)C (configuration not stated),–,5.19
c1cc[n+]2c(c1)-c1cccc[n+]1CC2,–,4.12
CC(C)(O)C(F)(F)C(F)F,–,2.44
ON=C1CCCCC1,–,2.74
O=S(=O)([O-])c1ccc[n+](Cc2ccccc2)c1,–,2.02
Clc1cccc(C(Cl)(Cl)Cl)n1,–,4.37
C1OCOCO1,–,1.18
COC(=O)c1ccc(O)cc1O,–,3.6
O=S(c1ccccc1)c1ccccc1,–,3.37
CCCCC(=O)CCCC,–,3.66
CN(C)N,–,3.88
CC(C)C(C(=O)OC(C#N)c1cccc(Oc2ccccc2)c1)c1ccc(OC(F)F)cc1 (configuration not stated),–,8.98
CC(C)(c1cc(Br)c(O)c(Br)c1)c1cc(Br)c(O)c(Br)c1,–,5.83
O=C(Oc1ccccc1)c1ccccc1C(=O)Oc1ccccc1,–,6.6
CC(C)=C1C=C2CC[C@@H]3[C@](C)(CCC[C@@]3(C)C(=O)O)[C@H]2CC1,–,5.31
O=C(O)C(Br)Br,–,3.5

Compound,48 h IGC50 (-log10 mol/L) (Tetrahymena pyriformis),96 h LC50 (-log10 mol/L) (Pimephales promelas)
CCOP(=S)(OCC)Oc1ccc(S(C)=O)cc1 (configuration not stated),–,3.85
Clc1ccc(C(c2ccc(Cl)cc2)C(Cl)Cl)cc1,–,4.86
Brc1ccccc1Br,–,4.76
CC(C)OC(C)C,–,2.11
O=P(c1ccccc1)(c1ccccc1)c1ccccc1,–,3.71
CCOC(=O)/C=C\C(=O)OCC,–,3.98
CC(C)(C)SSC(C)(C)C,–,5.12
BrCCCBr,–,5.05
c1ccc(-c2cccc(-c3ccccc3)n2)cc1,–,6.04
CCN(CC)CCCC(C)=O,–,2.67
c1ccc(SSc2ccccc2)cc1,–,6.3
Clc1cc(Cl)cc(C2(CC(Cl)(Cl)Cl)CO2)c1 (configuration not stated),–,5.38
O=C(O)c1c(Cl)ccc(Cl)c1Cl,–,4.42
CC(Oc1cc(Cl)c(Cl)cc1Cl)C(=O)O (configuration not stated),–,4.2
CCOP(=O)(OCC)OP(=O)(OCC)OCC,–,5.35
CC(O)(c1ccc(Cl)cc1)c1ccc(Cl)cc1,–,5.25
Nc1ccc(F)c(C(F)(F)F)c1,–,3.77
CC1CNCCN1 (configuration not stated),–,1.65
NCCCN1CCN(CCCN)CC1,–,1.81
Cc1ncc[nH]1,–,2.46
OCc1ccoc1,–,2.29
CCC(=O)c1ccc(N)cc1,–,3.01
ClC1C(Cl)C(Cl)C(Cl)C(Cl)C1Cl (configuration not stated),–,6.61
CC1(C)CCC(C)(C)O1,–,2.88

Compound,48 h IGC50 (-log10 mol/L) (Tetrahymena pyriformis),96 h LC50 (-log10 mol/L) (Pimephales promelas)
CC(C)(C)CC(C)(C)N,–,3.72
Cc1c([N+](=O)[O-])cc(N)cc1[N+](=O)[O-],–,4.46
O=C(Nc1cccc(Cl)c1)c1cccc([N+](=O)[O-])c1O,–,6.08
O=c1cccc(Cl)[nH]1,–,2.78
CN(C)N=O,–,1.9
O[C@H]1C[C@@H]2CC[C@H]1C2,–,2.69
CC(C)(C)CCN,–,2.23
CNC(=O)Oc1ccc(N(C)C)c(C)c1,–,5.03
CC(=O)/C=C/C1=C(C)CCCC1(C)C,–,4.58
CC(C)(C)SC(C)(C)C,–,3.7
CC(C)CCCCCOC(=O)C(C)Oc1cc(Cl)c(Cl)cc1Cl (configuration not stated),–,4.24
CCOC(=O)C(C)Oc1ccc(Oc2nc3ccc(Cl)cc3o2)cc1 (configuration not stated),–,4.71
Nc1ccc(-c2ccc(N)c(Cl)c2)cc1Cl,–,5.08
CC(C)=CC1C(C(=O)OCc2ccc(C)cc2C)C1(C)C (configuration not stated),–,6.67
COc1ccccc1[N+](=O)[O-],–,2.9
COP(O)(=S)OC,–,3.52
CCN1C(=O)CC(=O)N(CC)C1=S,–,1.65
C=C(C)C(=O)OCC1CCCO1 (configuration not stated),–,3.69
Cc1cccnc1,–,2.81
CCCCCCCCCCCCCN,–,6.48
CCOC(=O)c1ccccc1O,–,3.92
CC(C)=CCC/C(C)=C/CN(C/C=C(\C)CCC=C(C)C)CCO,–,6.41
CCC1(CCC(C)C)C(=O)NC(=O)NC1=O,–,3.42
